Measurements published in patent US9546164B2 (GENENTECH, INC., priority 2013, dated 2017).
Structures can show the parent of a compound that is named as a salt. Where two headings read alike, the source gives them in different places.

Biological target: hNav1.7 (Homo sapiens (Human), UniProt Q15858)
Experiment: Tritiated sulfonamide competitive binding to membranes from cells expressing hNav1.7 and the β1 subunit;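 further: Filter-bound radioactivity counted by liquid scintillation, nonspecific binding defined with excess unlabelled ligand, IC50 fitted to percent inhibition of specific binding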
[1] = read-out: Ligand Binding Assay, 100 pM [3H]compound, membranes with hNav1.7 and β1 subunit, 18 h, room temperature

hNav1.7, sequence (Q15858 other isoform, or with tags, fused parts or gaps): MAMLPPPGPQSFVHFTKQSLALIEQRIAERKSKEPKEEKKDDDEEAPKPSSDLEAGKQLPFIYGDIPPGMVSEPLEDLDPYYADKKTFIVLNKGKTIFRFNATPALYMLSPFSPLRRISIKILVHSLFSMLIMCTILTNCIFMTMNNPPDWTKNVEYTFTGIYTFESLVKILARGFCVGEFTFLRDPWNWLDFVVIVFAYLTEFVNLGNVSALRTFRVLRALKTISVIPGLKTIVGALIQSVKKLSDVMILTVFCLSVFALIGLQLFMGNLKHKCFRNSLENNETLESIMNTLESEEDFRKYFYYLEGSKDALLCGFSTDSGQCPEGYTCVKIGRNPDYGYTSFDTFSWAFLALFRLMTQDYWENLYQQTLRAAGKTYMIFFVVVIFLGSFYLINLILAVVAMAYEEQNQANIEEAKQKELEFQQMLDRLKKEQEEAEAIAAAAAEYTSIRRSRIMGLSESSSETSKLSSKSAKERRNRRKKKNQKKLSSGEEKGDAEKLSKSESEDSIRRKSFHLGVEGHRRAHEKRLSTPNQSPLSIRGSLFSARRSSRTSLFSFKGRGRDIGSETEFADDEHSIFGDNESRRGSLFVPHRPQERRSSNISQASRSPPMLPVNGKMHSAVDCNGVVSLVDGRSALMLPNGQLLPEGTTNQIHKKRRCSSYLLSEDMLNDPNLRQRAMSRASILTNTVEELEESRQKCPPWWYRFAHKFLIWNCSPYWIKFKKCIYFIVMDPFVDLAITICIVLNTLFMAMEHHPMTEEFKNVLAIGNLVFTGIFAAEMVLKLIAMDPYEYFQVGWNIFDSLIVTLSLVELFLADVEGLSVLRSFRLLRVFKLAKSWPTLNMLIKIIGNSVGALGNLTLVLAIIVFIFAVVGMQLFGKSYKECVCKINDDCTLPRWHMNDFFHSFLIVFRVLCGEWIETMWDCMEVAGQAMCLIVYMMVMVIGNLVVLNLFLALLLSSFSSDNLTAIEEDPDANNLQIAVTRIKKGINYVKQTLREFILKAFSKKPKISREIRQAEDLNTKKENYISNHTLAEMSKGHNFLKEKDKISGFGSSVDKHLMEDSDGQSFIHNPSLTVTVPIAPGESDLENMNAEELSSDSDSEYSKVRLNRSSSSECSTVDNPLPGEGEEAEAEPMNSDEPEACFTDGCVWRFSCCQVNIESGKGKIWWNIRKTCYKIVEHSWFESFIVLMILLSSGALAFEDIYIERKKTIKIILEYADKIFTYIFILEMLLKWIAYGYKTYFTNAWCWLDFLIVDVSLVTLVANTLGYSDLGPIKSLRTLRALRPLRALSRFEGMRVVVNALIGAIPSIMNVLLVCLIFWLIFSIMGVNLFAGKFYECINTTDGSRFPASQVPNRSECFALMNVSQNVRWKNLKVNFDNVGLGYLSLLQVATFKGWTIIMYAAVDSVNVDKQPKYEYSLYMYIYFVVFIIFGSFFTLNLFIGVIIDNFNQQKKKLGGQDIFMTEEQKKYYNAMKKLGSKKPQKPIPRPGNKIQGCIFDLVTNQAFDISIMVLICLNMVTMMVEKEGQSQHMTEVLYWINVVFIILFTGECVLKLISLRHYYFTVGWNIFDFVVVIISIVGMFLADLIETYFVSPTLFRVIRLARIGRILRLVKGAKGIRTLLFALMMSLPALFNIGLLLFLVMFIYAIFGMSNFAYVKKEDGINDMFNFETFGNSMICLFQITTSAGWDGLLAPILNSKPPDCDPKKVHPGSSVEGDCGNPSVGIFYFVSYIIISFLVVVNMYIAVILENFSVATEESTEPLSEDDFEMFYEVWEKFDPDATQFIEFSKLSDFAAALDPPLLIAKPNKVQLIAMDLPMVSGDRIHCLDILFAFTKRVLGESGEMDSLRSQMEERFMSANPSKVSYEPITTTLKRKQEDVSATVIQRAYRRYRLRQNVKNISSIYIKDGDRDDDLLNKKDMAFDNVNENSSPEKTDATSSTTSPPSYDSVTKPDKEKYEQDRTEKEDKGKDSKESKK
hNav1.7, sequence (Q07699 19-218 partner): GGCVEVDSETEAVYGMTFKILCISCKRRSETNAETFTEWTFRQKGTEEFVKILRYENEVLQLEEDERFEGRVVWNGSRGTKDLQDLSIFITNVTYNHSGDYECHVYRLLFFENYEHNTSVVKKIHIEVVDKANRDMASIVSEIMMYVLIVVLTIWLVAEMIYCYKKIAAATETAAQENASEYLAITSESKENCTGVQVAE

IC50 [1] | SMILES | also measured
4.4 nM | COC[C@H](c1ccc(Cl)cc1Cl)N1CCC(COc2cc(F)c(C(=O)NS(C)(=O)=O)cc2C2CC2)CC1 [Example 282, (S)-5-cyclopropyl-4-((1-(1-(2,4-dichlorophenyl)-2-methoxyethyl)piperidin-4-yl)methoxy)-2-fluoro-N-(methylsulfonyl)benzamide] | 
9400 nM | CS(=O)(=O)NC(=O)c1cc(C2CC2)c(OCC2CCN([C@@H]3c4ccccc4C[C@H]3O)CC2)cc1F [Example 200, 5-Cyclopropyl-2-fluoro-4-((1-((1R,2R)-2-hydroxy-2,3-dihydro-1H-inden-1-yl)piperidin-4-yl)methoxy)-N-(methylsulfonyl)benzamide] | 
2.69 nM | CC(c1cc(Cl)cc(Cl)c1)N1CCC(COc2cc(F)c(C(=O)NS(C)(=O)=O)cc2C2CC2)CC1 (centres unmarked) [Example 97, 5-Cyclopropyl-4-((1-(1-(3,5-dichlorophenyl)ethyl)piperidin-4-yl)methoxy)-2-fluoro-N-(methylsulfonyl)benzamide] | 
2.1 nM | O=C(NS(=O)(=O)C1CC1)c1cc(C2CC2)c(OCC2CCN(C(c3ccc(Cl)cc3)c3ccc(Cl)cc3)CC2)cc1F [Example 400, 4-((1-(bis(4-chlorophenyl)methyl)piperidin-4-yl)methoxy)-5-cyclopropyl-N-(cyclopropylsulfonyl)-2-fluorobenzamide, trifluoroacetic acid salt] | 
443 nM | CS(=O)(=O)NC(=O)c1cc(C2CC2)c(OCC2CN([C@@H](c3ccccc3)c3ccncc3)C2)cc1F [Example 152, (S)-5-Cyclopropyl-2-fluoro-N-(methylsulfonyl)-4-((1-(phenyl(pyridin-4-yl)methyl)azetidin-3-yl)methoxy)benzamide] | 
4.7 nM | O=C(NS(=O)(=O)CC1CC1)c1cc(C2CC2)c(OCC2CN(C(c3ccccc3)c3ccccc3)C2)cc1F [Example 64, 4-((1-benzhydrylazetidin-3-yl)methoxy)-5-cyclopropyl-N-((cyclopropylmethyl)-sulfonyl)-2-fluorobenzamide] | 
8.1 nM | CCS(=O)(=O)NC(=O)c1cc(C2CC2)c(OCC2CCN([C@H](c3cc(Cl)cc(Cl)c3)C(F)F)CC2)cc1F [Example 227, (R)-5-cyclopropyl-4-((1-(1-(3,5-dichlorophenyl)-2,2-difluoroethyl)piperidin-4-yl)methoxy)-N-(ethylsulfonyl)-2-fluorobenzamide] | 
429 nM | CS(=O)(=O)NC(=O)c1cc(C2CC2)c(OCC2CN([C@H](c3ccccc3)c3ccc(S(C)(=O)=O)cc3)C2)cc1F [Example 96, (R)-5-Cyclopropyl-2-fluoro-N-(methylsulfonyl)-4-((1-((4-(methylsulfonyl)phenyl)(phenyl)methyl)azetidin-3-yl)methoxy)benzamide] | 
11 nM | O=C(NS(=O)(=O)N1CCC1)c1cc(C2CC2)c(OCC2CCN(c3ccccc3)CC2)cc1F [Example 291, N-(azetidin-1-ylsulfonyl)-5-cyclopropyl-2-fluoro-4-((1-phenylpiperidin-4-yl)methoxy)benzamide] | 
8.3 nM | O=C(NS(=O)(=O)C1CC1)c1cc(C2CC2)c(OCC2CCN(S(=O)(=O)c3cc(Cl)c(Br)cc3F)CC2)cc1F [Example 367, 4-((1-((4-bromo-5-chloro-2-fluorophenyl)sulfonyl)piperidin-4-yl)methoxy)-5-cyclopropyl-N-(cyclopropylsulfonyl)-2-fluorobenzamide] | 

More lines, now with the values behind:

SMILES | IC50 [1] | also measured
CS(=O)(=O)NC(=O)c1cc(C2CC2)c(CN2[C@@H]3CC[C@H]2C[C@@H](Oc2ncc(C(F)(F)F)cc2Cl)C3)cc1F [Example 553, 4-(((1R,3r,5S)-3-((3-chloro-5-(trifluoromethyl)pyridin-2-yl)oxy)-8-azabicyclo[3.2.1]octan-8-yl)methyl)-5-cyclopropyl-2-fluoro-N-(methylsulfonyl)benzamide, trifluoroacetic acid salt] |  | IC50 (read-out: Ligand Binding Assay, 100 pM [3H]compound, membranes with hNav1.7 and β1 subunit, 18 h, room temperature, trifluoroacetic acid salt): 6.1 nM
O=C(NS(=O)(=O)C1CC1)c1cc(C2CC2)c(CN2CCN(S(=O)(=O)c3cc(Cl)cc(Cl)c3)CC2)cc1F [Example 527, 5-cyclopropyl-N-(cyclopropylsulfonyl)-4-((4-((3,5-dichlorophenyl)sulfonyl)piperazin-1-yl)methyl)-2-fluorobenzamide, trifluoroacetic acid salt] |  | IC50: 9.9 nM
O=C(NS(=O)(=O)C1CC1)c1cc(C2CC2)c(O[C@@H]2CCCN(c3ccc(C(F)(F)F)cn3)C2)cc1F [Example 491, (R)-5-cyclopropyl-N-(cyclopropylsulfonyl)-2-fluoro-4-((1-(5-(trifluoromethyl)pyridin-2-yl)piperidin-3-yl)oxy)benzamide, trifluoroacetic acid salt] | 28.3 nM | 
CS(=O)(=O)NC(=O)c1cc(C2CC2)c(CN2CCC(S(=O)(=O)c3cc(Cl)cc(Cl)c3)CC2)cc1F [Example 532, 5-cyclopropyl-4-((4-((3,5-dichlorophenyl)sulfonyl)piperidin-1-yl)methyl)-2-fluoro-N-(methylsulfonyl)benzamide, trifluoroacetic acid salt] |  | IC50: 220 nM
CS(=O)(=O)NC(=O)c1cc(C2CC2)c(OCC2CN([C@H](c3ccccc3)c3cccc(C#N)c3)C2)cc1F [Example 109, (R)-4-((1-((3-Cyanophenyl)(phenyl)methyl)azetidin-3-yl)methoxy)-5-cyclopropyl-2-fluoro-N-(methylsulfonyl)benzamide] | 53.6 nM | 
CC1(COc2cc(F)c(C(=O)NS(C)(=O)=O)cc2C2CC2)CCN(Cc2cc(Cl)ccc2C(F)(F)F)CC1 [Example 122] | 2.4 nM | 
CS(=O)(=O)NC(=O)c1cc(C2CC2)c(OCC2CCN(S(=O)(=O)c3ccc(Br)c(Cl)c3)CC2)cc1F [Example 390, 4-((1-((4-bromo-3-chlorophenyl)sulfonyl)piperidin-4-yl)methoxy)-5-cyclopropyl-2-fluoro-N-(methylsulfonyl)benzamide] | 18.5 nM | 
CS(=O)(=O)NC(=O)c1cc(C2CC2)c(OCC2CCN(Cc3ccc(C(F)(F)F)cc3)CC2)cc1F [Example 126] | 282 nM | 
C[C@@H](c1ccc(OC(F)(F)F)cc1)N1CCC(C)(COc2cc(F)c(C(=O)NS(C)(=O)=O)cc2C2CC2)CC1 (single isomer, unassigned) [Example 248] | 10 nM | 
C[C@H]1CN(Cc2cc(F)c(C(=O)NS(=O)(=O)C3CC3)cc2C2CC2)CCN1[C@@H](C)c1cc(Cl)cc(Cl)c1 [Example 568, 5-cyclopropyl-N-(cyclopropylsulfonyl)-4-(((S)-4-((S)-1-(3,5-dichlorophenyl)ethyl)-3-methylpiperazin-1-yl)methyl)-2-fluorobenzamide] |  | IC50: 9.5 nM
CS(=O)(=O)NC(=O)c1cc(C2CC2)c(CN2CCC(OCc3ccc(F)cc3Cl)CC2)cc1F [Example 478, 4-((4-((2-chloro-4-fluorobenzyl)oxy)piperidin-1-yl)methyl)-5-cyclopropyl-2-fluoro-N-(methylsulfonyl)benzamide, trifluoroacetic acid salt] | 38.1 nM | 
O=C(NS(=O)(=O)N1CCC1)c1cc(C2CC2)c(OC[C@@H]2CCCN(Cc3ccc(F)cc3Cl)C2)cc1F [Example 333] | 20.7 nM | 
CS(=O)(=O)NC(=O)c1cc(C2CC2)c(OCC2CCN(S(C)(=O)=O)CC2)cc1F [Example 395, 5-cyclopropyl-2-fluoro-N-(methylsulfonyl)-4-((1-(methylsulfonyl)piperidin-4-yl)methoxy)benzamide] | > 10000 nM | 
O=C(NS(=O)(=O)C1CC1)c1cc(C2CC2)c(O[C@@H]2CCCN(c3ccccn3)C2)cc1F [Example 492, (R)-5-cyclopropyl-N-(cyclopropylsulfonyl)-2-fluoro-4-((1-(pyridin-2-yl)piperidin-3-yl)oxy)benzamide] | 93.8 nM | 
CS(=O)(=O)NC(=O)c1cc(C2CC2)c(OCC2CCN(Cc3ccc(Br)cc3F)CC2)cc1F [Example 589, 4-((1-(4-bromo-2-fluorobenzyl)piperidin-4-yl)methoxy)-5-cyclopropyl-2-fluoro-N-(methylsulfonyl)benzamide] | 11 nM | 
CS(=O)(=O)NC(=O)c1cc(C2CC2)c(O[C@@H]2CCCN(CC3(C(F)(F)F)CCC3)C2)cc1F [Example 328, (R)-5-cyclopropyl-2-fluoro-N-(methylsulfonyl)-4-((1-((1-(trifluoromethyl)cyclobutyl)methyl)piperidin-3-yl)oxy)benzamide] | 6.4 nM | 
O=C(NS(=O)(=O)C1CC1)c1cc(C2CC2)c(O[C@@H]2CCCN(Cc3ccc(F)cc3)C2)cc1F [Example 21, (R)-5-cyclopropyl-N-(cyclopropylsulfonyl)-2-fluoro-4-((1-(4-fluorobenzyl)piperidin-3-yl)oxy)benzamide] |  | IC50: 11.2 nM
CC(C)(C)N1CCC[C@@H](Oc2cc(F)c(C(=O)NS(=O)(=O)C3CC3)cc2C2CC2)C1 [Example 539, (R)-4-((1-(tert-butyl)piperidin-3-yl)oxy)-5-cyclopropyl-N-(cyclopropylsulfonyl)-2-fluorobenzamide] |  | IC50: 2280 nM
CS(=O)(=O)NC(=O)c1cc(C2CC2)c(OCC2CCN(c3cc(C(F)(F)F)c(Cl)cn3)CC2)cc1F [Example 554, 4-((1-(5-chloro-4-(trifluoromethyl)pyridin-2-yl)piperidin-4-yl)methoxy)-5-cyclopropyl-2-fluoro-N-(methylsulfonyl)benzamide] | 3.2 nM | 
CCS(=O)(=O)NC(=O)c1cc(C2CC2)c(OCC2(C)CN([C@@H](C)c3cc(Cl)cc(Cl)c3)C2)cc1F (single isomer, unassigned) [Example 289] | 3.5 nM | 
CC1(COc2cc(F)c(C(=O)NS(=O)(=O)C3CC3)cc2C2CC2)CN(c2ccc(Cl)c(C(F)(F)F)n2)C1 [Example 485, 4-((1-(5-chloro-6-(trifluoromethyl)pyridin-2-yl)-3-methylazetidin-3-yl)methoxy)-5-cyclopropyl-N-(cyclopropylsulfonyl)-2-fluorobenzamide] | 4.5 nM | 
O=C(NS(=O)(=O)C1CC1)c1cc(C2CC2)c(CN2CCC(Oc3cc(Cl)cc(OC(F)(F)F)c3)CC2)cc1F [Example 549, 4-((4-(3-chloro-5-(trifluoromethoxy)phenoxy)piperidin-1-yl)methyl)-5-cyclopropyl-N-(cyclopropylsulfonyl)-2-fluorobenzamide, trifluoroacetic acid salt] |  | IC50: 4.4 nM
